Molecular target: MCH receptor (Homo sapiens, UniProt Q99705)
Assay: Receptor binding assay with Radiolabelled MCH Ligand
Parameters: expressed in transfected cells; host or cells: 293 cells (human kidney, ATCC), transient transfection; crude membranes
Conditions: class by percent of control at 10^-7 M or IC50
How it was run: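 This was a filtration radioligand displacement assay: compounds, first tested at 1 and 0.1 μM and then over a range, inhibited binding of a labelled MCH ligand to transfected 293-cell membranes at room temperature for 60–120 min. Specific binding excluded a cold-MCH nonspecific signal. Ki was derived from IC50 via Cheng-Prusoff, using an independently measured KD.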

Chain of MCH receptor (Q99705 whole entry): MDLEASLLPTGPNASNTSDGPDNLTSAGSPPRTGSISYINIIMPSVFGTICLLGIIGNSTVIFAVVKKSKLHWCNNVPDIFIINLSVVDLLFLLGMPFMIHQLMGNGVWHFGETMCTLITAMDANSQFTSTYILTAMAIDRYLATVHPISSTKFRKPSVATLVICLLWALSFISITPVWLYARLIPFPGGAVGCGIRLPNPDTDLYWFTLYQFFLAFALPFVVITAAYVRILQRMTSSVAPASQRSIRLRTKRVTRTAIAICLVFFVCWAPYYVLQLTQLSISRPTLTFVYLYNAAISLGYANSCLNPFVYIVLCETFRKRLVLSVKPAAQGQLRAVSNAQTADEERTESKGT

| Compound | class |
| --- | --- |
| Cc1nc(N[C@H]2CC[C@@H](NS(=O)(=O)Cc3ccc(F)cc3)CC2)cc(N(C)C)n1 [compound 474, N-(cis-4-{[6-(dimethylamino)-2-methylpyrimidim-4-yl]amino}cyclohexyl)-1-(4-fluorophenyl)methanesulfonamide] | 3 (Class 3: The value of percent of control at 10^−7 M was more than 60% or the value of IC50 was more than 200 nM.) |
| Cc1nc(N[C@H]2CC[C@@H](NS(=O)(=O)Cc3ccccc3[N+](=O)[O-])CC2)cc(N(C)C)n1 [compound 475] | 3 (Class 3: The value of percent of control at 10^−7 M was more than 60% or the value of IC50 was more than 200 nM.) |
| Cc1nc(N[C@H]2CC[C@@H](NS(=O)(=O)Cc3ccccc3)CC2)cc(N(C)C)n1 [compound 476] | 3 (Class 3: The value of percent of control at 10^−7 M was more than 60% or the value of IC50 was more than 200 nM.) |
| Cc1nc(N[C@H]2CC[C@@H](NS(=O)(=O)CCc3cccc4ccccc34)CC2)cc(N(C)C)n1 [compound 477] | 3 (Class 3: The value of percent of control at 10^−7 M was more than 60% or the value of IC50 was more than 200 nM.) |
| Cc1nc(N[C@H]2CC[C@@H](NS(C)(=O)=O)CC2)cc(N(C)C)n1 [compound 478] | 3 (Class 3: The value of percent of control at 10^−7 M was more than 60% or the value of IC50 was more than 200 nM.) |
| Cc1nc(N[C@H]2CC[C@@H](NS(=O)(=O)C(C)C)CC2)cc(N(C)C)n1 [compound 479] | 3 (Class 3: The value of percent of control at 10^−7 M was more than 60% or the value of IC50 was more than 200 nM.) |
| CCCCCCCCS(=O)(=O)N[C@H]1CC[C@@H](Nc2cc(N(C)C)nc(C)n2)CC1 [compound 480] | 3 (Class 3: The value of percent of control at 10^−7 M was more than 60% or the value of IC50 was more than 200 nM.) |
| COC(=O)c1ccccc1S(=O)(=O)N[C@H]1CC[C@@H](Nc2cc(N(C)C)nc(C)n2)CC1 [compound 481] | 3 (Class 3: The value of percent of control at 10^−7 M was more than 60% or the value of IC50 was more than 200 nM.) |
| C=Cc1ccc(S(=O)(=O)N[C@H]2CC[C@@H](Nc3cc(N(C)C)nc(C)n3)CC2)cc1 [compound 482] | 3 (Class 3: The value of percent of control at 10^−7 M was more than 60% or the value of IC50 was more than 200 nM.) |
| Cc1nc(N[C@H]2CC[C@@H](NS(=O)(=O)c3cccc(C(F)(F)F)c3)CC2)cc(N(C)C)n1 [compound 483] | 3 (Class 3: The value of percent of control at 10^−7 M was more than 60% or the value of IC50 was more than 200 nM.) |
| CC(=O)c1ccc(S(=O)(=O)N[C@H]2CC[C@@H](Nc3cc(N(C)C)nc(C)n3)CC2)cc1 [compound 484] | 3 (Class 3: The value of percent of control at 10^−7 M was more than 60% or the value of IC50 was more than 200 nM.) |
| Cc1nc(N[C@H]2CC[C@@H](NS(=O)(=O)c3ccc(C)c(Cl)c3)CC2)cc(N(C)C)n1 [compound 485] | 3 (Class 3: The value of percent of control at 10^−7 M was more than 60% or the value of IC50 was more than 200 nM.) |
| Cc1cc(C)c(S(=O)(=O)N[C@H]2CC[C@@H](Nc3cc(N(C)C)nc(C)n3)CC2)c(C)c1 [compound 486] | 3 (Class 3: The value of percent of control at 10^−7 M was more than 60% or the value of IC50 was more than 200 nM.) |
| CCCc1ccc(S(=O)(=O)N[C@H]2CC[C@@H](Nc3cc(N(C)C)nc(C)n3)CC2)cc1 [compound 487] | 3 (Class 3: The value of percent of control at 10^−7 M was more than 60% or the value of IC50 was more than 200 nM.) |
| CCC(C)(C)c1ccc(S(=O)(=O)N[C@H]2CC[C@@H](Nc3cc(N(C)C)nc(C)n3)CC2)cc1 [compound 488] | 3 (Class 3: The value of percent of control at 10^−7 M was more than 60% or the value of IC50 was more than 200 nM.) |
| Cc1nc(N[C@H]2CC[C@@H](NS(=O)(=O)c3ccc(-c4ccccc4)cc3)CC2)cc(N(C)C)n1 [compound 489] | 3 (Class 3: The value of percent of control at 10^−7 M was more than 60% or the value of IC50 was more than 200 nM.) |
| Cc1nc(N[C@H]2CC[C@@H](NS(=O)(=O)c3cccc4c(N(C)C)cccc34)CC2)cc(N(C)C)n1 [compound 490] | 3 (Class 3: The value of percent of control at 10^−7 M was more than 60% or the value of IC50 was more than 200 nM.) |
| Cc1nc(N[C@H]2CC[C@@H](NS(=O)(=O)c3ccccc3OC(F)(F)F)CC2)cc(N(C)C)n1 [compound 491] | 3 (Class 3: The value of percent of control at 10^−7 M was more than 60% or the value of IC50 was more than 200 nM.) |
| Cc1nc(N[C@H]2CC[C@@H](NS(=O)(=O)c3cccc(OC(F)(F)F)c3)CC2)cc(N(C)C)n1 [compound 492] | 3 (Class 3: The value of percent of control at 10^−7 M was more than 60% or the value of IC50 was more than 200 nM.) |
| COc1cccc(S(=O)(=O)N[C@H]2CC[C@@H](Nc3cc(N(C)C)nc(C)n3)CC2)c1 [compound 493] | 3 (Class 3: The value of percent of control at 10^−7 M was more than 60% or the value of IC50 was more than 200 nM.) |

| Compound | class |
| --- | --- |
| CCCCOc1ccc(S(=O)(=O)N[C@H]2CC[C@@H](Nc3cc(N(C)C)nc(C)n3)CC2)cc1 [compound 494] | 3 (Class 3: The value of percent of control at 10^−7 M was more than 60% or the value of IC50 was more than 200 nM.) |
| Cc1nc(N[C@H]2CC[C@@H](NS(=O)(=O)c3cc(Cl)c(Oc4ccc([N+](=O)[O-])cc4Cl)c(Cl)c3)CC2)cc(N(C)C)n1 [compound 495] | 3 (Class 3: The value of percent of control at 10^−7 M was more than 60% or the value of IC50 was more than 200 nM.) |
| Cc1nc(N[C@H]2CC[C@@H](NS(=O)(=O)c3ccc(Oc4ccccc4)cc3)CC2)cc(N(C)C)n1 [compound 496] | 3 (Class 3: The value of percent of control at 10^−7 M was more than 60% or the value of IC50 was more than 200 nM.) |
| Cc1nc(N[C@H]2CC[C@@H](NS(=O)(=O)c3ccc(Oc4ncc(C(F)(F)F)cc4Cl)cc3)CC2)cc(N(C)C)n1 [compound 497] | 3 (Class 3: The value of percent of control at 10^−7 M was more than 60% or the value of IC50 was more than 200 nM.) |
| Cc1nc(N[C@H]2CC[C@@H](NS(=O)(=O)c3ccc(S(C)(=O)=O)cc3)CC2)cc(N(C)C)n1 [compound 498] | 3 (Class 3: The value of percent of control at 10^−7 M was more than 60% or the value of IC50 was more than 200 nM.) |
| Cc1nc(N[C@H]2CC[C@@H](NS(=O)(=O)c3cccc(C#N)c3)CC2)cc(N(C)C)n1 [compound 499] | 3 (Class 3: The value of percent of control at 10^−7 M was more than 60% or the value of IC50 was more than 200 nM.) |
| Cc1nc(N[C@H]2CC[C@@H](NS(=O)(=O)c3cccc(Br)c3)CC2)cc(N(C)C)n1 [compound 500] | 3 (Class 3: The value of percent of control at 10^−7 M was more than 60% or the value of IC50 was more than 200 nM.) |
| Cc1nc(N[C@H]2CC[C@@H](NS(=O)(=O)c3ccc(Br)cc3OC(F)(F)F)CC2)cc(N(C)C)n1 [compound 501] | 3 (Class 3: The value of percent of control at 10^−7 M was more than 60% or the value of IC50 was more than 200 nM.) |
| Cc1nc(N[C@H]2CC[C@@H](NS(=O)(=O)c3ccc(Cl)c(Cl)c3)CC2)cc(N(C)C)n1 [compound 502] | 3 (Class 3: The value of percent of control at 10^−7 M was more than 60% or the value of IC50 was more than 200 nM.) |
| Cc1nc(N[C@H]2CC[C@@H](NS(=O)(=O)c3cccc(F)c3)CC2)cc(N(C)C)n1 [compound 503] | 3 (Class 3: The value of percent of control at 10^−7 M was more than 60% or the value of IC50 was more than 200 nM.) |
| Cc1nc(N[C@H]2CC[C@@H](NS(=O)(=O)c3cccc([N+](=O)[O-])c3)CC2)cc(N(C)C)n1 [compound 504] | 3 (Class 3: The value of percent of control at 10^−7 M was more than 60% or the value of IC50 was more than 200 nM.) |
| Cc1nc(N[C@H]2CC[C@@H](NS(=O)(=O)c3cccc4ccccc34)CC2)cc(N(C)C)n1 [compound 505] | 3 (Class 3: The value of percent of control at 10^−7 M was more than 60% or the value of IC50 was more than 200 nM.) |
| CCOC(=O)c1c(S(=O)(=O)N[C@H]2CC[C@@H](Nc3cc(N(C)C)nc(C)n3)CC2)c(-c2ccccc2)n(-c2ccccc2)c1C [compound 506] | 3 (Class 3: The value of percent of control at 10^−7 M was more than 60% or the value of IC50 was more than 200 nM.) |
| COC(=O)c1ccc(S(=O)(=O)N[C@H]2CC[C@@H](Nc3cc(N(C)C)nc(C)n3)CC2)n1C [compound 507] | 3 (Class 3: The value of percent of control at 10^−7 M was more than 60% or the value of IC50 was more than 200 nM.) |
| COC(=O)c1cc(S(=O)(=O)N[C@H]2CC[C@@H](Nc3cc(N(C)C)nc(C)n3)CC2)oc1C [compound 508] | 3 (Class 3: The value of percent of control at 10^−7 M was more than 60% or the value of IC50 was more than 200 nM.) |
| Cc1nc(N[C@H]2CC[C@@H](NS(=O)(=O)c3ccc4c(c3)CN(C(=O)C(F)(F)F)CC4)CC2)cc(N(C)C)n1 [compound 509] | 3 (Class 3: The value of percent of control at 10^−7 M was more than 60% or the value of IC50 was more than 200 nM.) |
| Cc1nc(N[C@H]2CC[C@@H](NS(=O)(=O)c3ccc(Cc4ncc(C(F)(F)F)cc4Cl)s3)CC2)cc(N(C)C)n1 [compound 510] | 3 (Class 3: The value of percent of control at 10^−7 M was more than 60% or the value of IC50 was more than 200 nM.) |
| Cc1nc(N[C@H]2CC[C@@H](NS(=O)(=O)c3sc4ccc(Cl)cc4c3C)CC2)cc(N(C)C)n1 [compound 511] | 3 (Class 3: The value of percent of control at 10^−7 M was more than 60% or the value of IC50 was more than 200 nM.) |
| Cc1nc(N[C@H]2CC[C@@H](NS(=O)(=O)c3c(C)noc3C)CC2)cc(N(C)C)n1 [compound 512] | 3 (Class 3: The value of percent of control at 10^−7 M was more than 60% or the value of IC50 was more than 200 nM.) |
| Cc1nc(N[C@H]2CC[C@@H](NS(=O)(=O)c3c(C)nn(C)c3C)CC2)cc(N(C)C)n1 [compound 513] | 3 (Class 3: The value of percent of control at 10^−7 M was more than 60% or the value of IC50 was more than 200 nM.) |

— patent US20090036448A1, “PYRIMIDINE DERIVATIVES AND METHODS OF TREATMENT RELATED TO THE USE THEREOF” (TAISHO PHARMECUTICAL CO., LTD., priority 2004, published 2009)
